Experimental data from patent US9714231B2, “Pyrrolidine GPR40 modulators” (BRISTOL-MYERS SQUIBB COMPANY, priority 2012, dated 2017).
Structures can show the parent of a compound that is named as a salt.

Biological target: human GPR40 (Homo sapiens, UniProt O14842)
Assay: FDSS-based intracellular calcium assay (Human GRP40 in vitro assay)
Type: cell-based
Design: 3xFLAG; expressed in transfected cells
Conditions: cells expressing GPR40, intracellular Ca2+ response, FDSS reader; read-out: hGPR40 EC50
Outline: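 GPR40-expressing cells, plated overnight in serum-free phenol red-free DMEM, loaded with Fluo-3 in HBSS with 1.7 mM probenecid for 30 min at 37° C. Compounds in DMSO, diluted in assay buffer, added as 3× solutions; intracellular Ca^2+ response read on FDSS.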

Sequence of human GPR40 (O14842 whole entry): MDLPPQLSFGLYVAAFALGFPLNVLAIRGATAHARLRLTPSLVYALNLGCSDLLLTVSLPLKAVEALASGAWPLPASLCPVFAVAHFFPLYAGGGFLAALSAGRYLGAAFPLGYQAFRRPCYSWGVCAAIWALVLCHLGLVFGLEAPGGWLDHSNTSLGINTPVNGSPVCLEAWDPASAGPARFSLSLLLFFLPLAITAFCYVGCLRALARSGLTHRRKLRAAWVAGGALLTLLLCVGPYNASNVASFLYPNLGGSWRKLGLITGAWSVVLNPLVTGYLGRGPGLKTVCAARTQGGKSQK

First: CCOc1ccc(F)c(N2CCC(Oc3ccc(N4C[C@H](Oc5cccc(C(F)(F)F)c5)C[C@@H]4CC(=O)O)cc3)CC2)c1 [Example 71, 2-((2R,4R)-1-(4-(1-(5-Ethoxy-2-fluorophenyl)piperidin-4-yloxy)phenyl)-4-(3-(trifluoromethyl)phenoxy)pyrrolidin-2-yl)acetic acid]
Second: CCOc1ccc(F)c(N2CCC(Oc3ccc(N4C[C@H](Oc5cccc(OC(F)(F)F)c5)C[C@@H]4CC(=O)O)cc3)CC2)c1 [Example 77, 2-((2R,4R)-1-(4-(1-(5-Ethoxy-2-fluorophenyl)piperidin-4-yloxy)phenyl)-4-(3-(trifluoromethoxy)phenoxy)pyrrolidin-2-yl)acetic acid]
The EC50 of the first is 1.8-fold higher: 250 nM for the first, 140 nM for the second.

Going from `CCOc1ccc(F)c(N2CCC(Oc3ccc(N4C[C@H](Oc5cccc(C)c5)C[C@@H]4CC(=O)O)cc3)CC2)c1` [Example 72, 2-((2R,4R)-1-(4-(1-(5-Ethoxy-2-fluorophenyl)piperidin-4-yloxy)phenyl)-4-(m-tolyloxy)pyrrolidin-2-yl)acetic acid] to `CCOc1ccc(F)c(N2CCC(Oc3ccc(N4C[C@H](Oc5ccc(C)cc5)C[C@@H]4CC(=O)O)cc3)CC2)c1` [Example 74, 2-((2R,4R)-1-(4-(1-(5-Ethoxy-2-fluorophenyl)piperidin-4-yloxy)phenyl)-4-(p-tolyloxy)pyrrolidin-2-yl)acetic acid], the EC50 rises from 170 nM to 1200 nM (7.1-fold). The first is the more potent here.

Compared with `CCOc1ccc(F)c(N2CCC(Oc3ccc(N4C[C@H](Oc5ccc(Cl)cc5)C[C@@H]4CC(=O)O)cc3)CC2)c1` [Example 73, 2-((2R,4R)-4-(4-Chlorophenoxy)-1-(4-(1-(5-ethoxy-2-fluorophenyl)piperidin-4-yloxy)phenyl)pyrrolidin-2-yl)acetic acid], `CCOc1ccc(F)c(N2CCC(Oc3ccc(N4C[C@H](Oc5ccccc5Cl)C[C@@H]4CC(=O)O)cc3)CC2)c1` [Example 79, 2-((2R,4R)-4-(2-Chlorophenoxy)-1-(4-(1-(5-ethoxy-2-fluorophenyl)piperidin-4-yloxy)phenyl)pyrrolidin-2-yl)acetic acid] is 2.2-fold lower in EC50: 1600 nM for the first, 740 nM for the second.

Going from `CCOc1ccc(F)c(N2CCC(Oc3ccc(N4C[C@H](Oc5ccccn5)C[C@@H]4CC(=O)O)cc3)CC2)c1` [Example 75, 2-((2R,4R)-1-(4-(1-(5-Ethoxy-2-fluorophenyl)piperidin-4-yloxy)phenyl)-4-(pyridin-2-yloxy)pyrrolidin-2-yl)acetic acid, TFA] to `CCOc1ccc(F)c(N2CCC(Oc3ccc(N4C[C@H](Oc5cccnc5)C[C@@H]4CC(=O)O)cc3)CC2)c1` [Example 76, 2-((2R,4R)-1-(4-(1-(5-Ethoxy-2-fluorophenyl)piperidin-4-yloxy)phenyl)-4-(pyridin-3-yloxy)pyrrolidin-2-yl)acetic acid], the EC50 rises from 420 nM to 860 nM (2-fold).

Going from `CCOc1ccc(F)c(N2CCC(Oc3ccc(N4C[C@H](Oc5ncccn5)C[C@@H]4CC(=O)O)cc3)CC2)c1` [Example 78, 2-((2R,4R)-1-(4-(1-(5-Ethoxy-2-fluorophenyl)piperidin-4-yloxy)phenyl)-4-(pyrimidin-2-yloxy)pyrrolidin-2-yl)acetic acid, TFA] to `CCOc1ccc(F)c(N2CCC(Oc3ccc(N4C[C@H](n5ccnn5)C[C@@H]4CC(=O)O)cc3)CC2)c1` [Example 81, 2-((2R,4R)-1-(4-(1-(5-Ethoxy-2-fluorophenyl)piperidin-4-yloxy)phenyl)-4-(1H-1,2,3-triazol-1-yl)pyrrolidin-2-yl)acetic acid], the EC50 falls from 1600 nM to 1000 nM (1.6-fold). The second is the more potent here.

Going from `CCOc1ccc(F)c(N2CCC(Oc3ccc(N4C[C@H](N(C)S(=O)(=O)c5ccccc5)C[C@@H]4CC(=O)O)cc3)CC2)c1` [Example 80, 2-((2R,4R)-1-(4-(1-(5-Ethoxy-2-fluorophenyl)piperidin-4-yloxy)phenyl)-4-(N-methylphenylsulfonamido)pyrrolidin-2-yl)acetic acid, TFA] to `CCCCCO[C@@H]1C[C@H](CC(=O)O)N(c2ccc(OC3CCN(c4cc(OCC)ccc4F)CC3)cc2)C1` [Example 103, 2-((2R,4R)-1-(4-((1-(5-Ethoxy-2-fluorophenyl)piperidin-4-yl)oxy)phenyl)-4-(pentyloxy)pyrrolidin-2-yl)acetic acid, TFA], the EC50 falls from 4600 nM to 120 nM (38-fold). The second is the more potent here.

`COc1ccc(C2CCC2)c(N2CCC(Oc3ccc(N4C[C@H](OC)C[C@@H]4CC(=O)O)cc3)CC2)c1` [Example 82, 2-((2R,4R)-1-(4-((1-(2-Cyclobutyl-5-methoxyphenyl)piperidin-4-yl)oxy)phenyl)-4-methoxypyrrolidin-2-yl)acetic acid, HCl] and `COc1cc(N2CCC(Oc3ccc(N4C[C@H](OC)C[C@@H]4CC(=O)O)cc3)CC2)c(Cl)cn1` [Example 87, 2-((2R,4R)-1-(4-((1-(5-Chloro-2-methoxypyridin-4-yl)piperidin-4-yl)oxy)phenyl)-4-methoxypyrrolidin-2-yl)acetic acid, TFA] are within 1.5-fold of each other in EC50: 310 nM for the first, 350 nM for the second.

`COc1cc(N2CCC(Oc3ccc(N4C[C@H](OC)C[C@@H]4CC(=O)O)cc3)CC2)c2nccn2n1` [Example 86, 2-((2R,4R)-4-Methoxy-1-(4-((1-(6-methoxyimidazo[1,2-b]pyridazin-8-yl)piperidin-4-yl)oxy)phenyl)pyrrolidin-2-yl)acetic acid, TFA] and `COc1cc(N2CCC(Oc3ccc(N4C[C@H](OC)C[C@@H]4CC(=O)O)cc3)C(Cn3cnnn3)C2)c(Cl)cn1` (stereo partly drawn) [Example 94, 2-((2R,4R)-1-(4-(((3,4-trans)-3-((1H-Tetrazol-1-yl)methyl)-1-(5-chloro-2-methoxypyridin-4-yl)piperidin-4-yl)oxy)phenyl)-4-methoxypyrrolidin-2-yl)acetic acid, TFA] are within 1.5-fold of each other in EC50: 4700 nM for the first, 3400 nM for the second.

`CCOc1ccc(F)c(N2CCC(Oc3ccc(N4C[C@H](OC)[C@@H](CC)[C@@H]4CC(=O)O)cc3)CC2)c1` [Example 88, 2-((2S,3S,4R)-1-(4-((1-(5-Ethoxy-2-fluorophenyl)piperidin-4-yl)oxy)phenyl)-3-ethyl-4-methoxypyrrolidin-2-yl)acetic acid, TFA] and `CCOc1ccc(F)c(N2CCC(Oc3ccc(N4C[C@H](OC)[C@@H](C(C)C)[C@@H]4CC(=O)O)cc3)CC2)c1` [Example 89, 2-((2S,3S,4R)-1-(4-((1-(5-Ethoxy-2-fluorophenyl)piperidin-4-yl)oxy)phenyl)-3-isopropyl-4-methoxypyrrolidin-2-yl)acetic acid, TFA] are within 1.5-fold of each other in EC50: 250 nM for the first, 320 nM for the second.

Going from `CCOc1ccc(F)c(N2CCC(Oc3ccc(N4C[C@H](OC)[C@@H](C5CC5)[C@@H]4CC(=O)O)cc3)CC2)c1` [Example 90, 2-((2S,3S,4R)-3-Cyclopropyl-1-(4-((1-(5-ethoxy-2-fluorophenyl)piperidin-4-yl)oxy)phenyl)-4-methoxypyrrolidin-2-yl)acetic acid, TFA] to `CCOc1ccc(F)c(N2CCC(Oc3ccc(N4C[C@H](OC)[C@@H](C5CCC5)[C@@H]4CC(=O)O)cc3)CC2)c1` [Example 92, 2-((2S,3S,4R)-3-Cyclobutyl-1-(4-((1-(5-ethoxy-2-fluorophenyl)piperidin-4-yl)oxy)phenyl)-4-methoxypyrrolidin-2-yl)acetic acid, TFA], the EC50 rises from 190 nM to 3700 nM (19-fold).

First: COc1cc(N2CCC(Oc3ccc(N4C[C@H](OC)C[C@@H]4CC(=O)O)cc3)C(CC#N)C2)c(Cl)cn1 (stereo partly drawn) [Example 93, 2-((2R,4R)-1-(4-(((3,4-trans)-1-(5-Chloro-2-methoxypyridin-4-yl)-3-(cyanomethyl)piperidin-4-yl)oxy)phenyl)-4-methoxypyrrolidin-2-yl)acetic acid, TFA]
Second: COc1cc(N2CCC(Oc3ccc(N4C[C@H](OC)[C@@H](C)[C@@H]4CC(=O)O)cn3)CC2)c(Cl)cn1 [Example 97, 2-((2S,3S,4R)-1-(6-((1-(5-Chloro-2-methoxypyridin-4-yl)piperidin-4-yl)oxy)pyridin-3-yl)-4-methoxy-3-methylpyrrolidin-2-yl)acetic acid]
The EC50 of the first is 21-fold higher: 2300 nM for the first, 110 nM for the second.

Going from `CCOc1ccc(F)c(N2CCC(Oc3ccc(N4C[C@H](OC)[C@@H](C)[C@@H]4CC(=O)O)cn3)CC2)c1` [Example 95, 2-((2S,3S,4R)-1-(6-((1-(5-Ethoxy-2-fluorophenyl)piperidin-4-yl)oxy)pyridin-3-yl)-4-methoxy-3-methylpyrrolidin-2-yl)acetic acid, TFA] to `CCOc1ccc(F)c(N2CCC(Oc3ccc(N4C[C@H](OC)[C@@H](C)[C@@H]4CC(=O)O)cc3F)CC2)c1` [Example 101, 2-((2S,3S,4R)-1-(4-((1-(5-Ethoxy-2-fluorophenyl)piperidin-4-yl)oxy)-3-fluorophenyl)-4-methoxy-3-methylpyrrolidin-2-yl)acetic acid], the EC50 falls from 510 nM to 180 nM (2.8-fold). The second is the more potent here.

First: CCOc1ccc(F)c(N2CCC(Oc3ccc(N4C[C@H](OC)[C@@H](C)[C@@H]4CC(=O)O)cc3F)C(C)C2)c1 (stereo partly drawn) [Example 100, 2-((2S,3S,4R)-1-(4-(((3,4-trans)-1-(5-Ethoxy-2-fluorophenyl)-3-methylpiperidin-4-yl)oxy)-3-fluorophenyl)-4-methoxy-3-methylpyrrolidin-2-yl)acetic acid]
Second: CCOc1ccc(F)c(N2CCC(Oc3ccc(N4CC[C@@H](C)[C@@H]4CC(=O)O)cc3)CC2)c1 [Example 104, 2-((2S,3R)-1-(4-((1-(5-Ethoxy-2-fluorophenyl)piperidin-4-yl)oxy)phenyl)-3-methylpyrrolidin-2-yl)acetic acid, TFA]
The EC50 of the first is 2.3-fold lower: 110 nM for the first, 250 nM for the second.

First: COc1cc(N2CCC(Oc3ccc(N4CC[C@@H](C)[C@@H]4CC(=O)O)cn3)C(C)C2)c(Cl)cn1 (stereo partly drawn) [Example 105, 2-((2S,3R)-1-(6-(((3,4-trans)-1-(5-Chloro-2-methoxypyridin-4-yl)-3-methylpiperidin-4-yl)oxy)pyridin-3-yl)-3-methylpyrrolidin-2-yl)acetic acid]
Second: COc1cc(N2CCC(Oc3ccc(N4C[C@H](C)[C@@H](C)[C@@H]4CC(=O)O)cn3)C(C)C2)c(Cl)cn1 (stereo partly drawn) [Example 106, 2-((2S,3R,4R)-1-(6-(((3,4-trans)-1-(5-Chloro-2-methoxypyridin-4-yl)-3-methylpiperidin-4-yl)oxy)pyridin-3-yl)-3,4-dimethylpyrrolidin-2-yl)acetic acid]
The EC50 of the first is 2.8-fold lower: 60 nM for the first, 170 nM for the second. The first is the more potent here.
